Experimental data published in patent US6355799B1, “Substituted benzene compounds, process for their preparation, and herbicidal and defoliant compositions containing them” (ISK Americas Incorporated, priority 1997, dated 2002).

Assays:
Assay type in all cases: in vivo
[1] = tested on: redroot pigweed (Amaranthus retroflexus, AMARE); test: Pre-emerge test, greenhouse herbicide activity screening; conditions: pre-emerge, rated 14 days after application, 0 = no damage, 100 = complete death
Procedure, shortened: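 Compounds in acetone were track-sprayed at 15-1000 g ai/ha (187 l/ha) on sandy loam pots: pre-emerge one day after seeding, post-emerge at 2-3 leaf stage with 0.25% v/v non-ionic surfactant. Phytotoxicity was rated 14 days later on a 0 (no damage) to 100 (complete death) scale.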

[2] = tested on: johnsongrass (Sorghum halepense, SORHA); test: as above; conditions: pre-emerge, rated 14 days after application, 0 = no damage, 100 = complete death
Procedure, shortened: (§1)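 Plants grown in 10 cm pots of sandy loam mix received acetone-dissolved compounds through a moving flat-fan nozzle. Doses ranged from 15 to 1000 g ai/ha. Pre-emerge pots were seeded one day earlier, post-emerge pots 8–21 days earlier. Fourteen days on, each pot was graded 0–100 for damage.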

[3] = tested on: ivyleaf morningglory (Ipomoea hederacea, IPOHE); test: as above; conditions: pre-emerge, rated 14 days after application, 0 = no damage, 100 = complete death
Procedure, shortened: as §1

[4] = tested on: velvetleaf (Abutilon theophrasti, ABUTH); test: as above; conditions: pre-emerge, rated 14 days after application, 0 = no damage, 100 = complete death
Procedure, shortened: as §1

[5] = tested on: sicklepod (Cassia obtusifolia, CASOB); test: as above; conditions: pre-emerge, rated 14 days after application, 0 = no damage, 100 = complete death
Procedure, shortened: as §1

[6] = tested on: lambsquarters (Chenopodium album, CHEAL); test: as above; conditions: pre-emerge, rated 14 days after application, 0 = no damage, 100 = complete death
Procedure, shortened: as §1

[7] = tested on: barnyardgrass (Echinochloa crus-galli, ECHCG); test: as above; conditions: pre-emerge, rated 14 days after application, 0 = no damage, 100 = complete death
Procedure, shortened: as §1

[8] = tested on: large crabgrass (Digitaria sanguinalis, DIGSA); test: as above; conditions: pre-emerge, rated 14 days after application, 0 = no damage, 100 = complete death
Procedure, shortened: as §1

[9] = tested on: green foxtail (Setaria viridis, SETVI); test: as above; conditions: pre-emerge, rated 14 days after application, 0 = no damage, 100 = complete death
Procedure, shortened: as §1

[10] = tested on: field corn (Zea mays L., var. Dekalb 535, CORN); test: Post-emerge test, crop safety; conditions: phytotoxicity rating 0-100 (0 no damage, 100 complete death), 14 days after application
Procedure, shortened: (§2)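 Each test used a mechanized track sprayer delivering 187 l/ha of acetone solution at 15–1000 g ai/ha. Post-emerge foliage at 2–3 leaves was treated with added 0.25% v/v non-ionic surfactant and bottom-watered only. Injury was assessed on day 14, where 100 means total kill.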

[11] = tested on: upland rice (Oryza sp., var. Tebonnet, RICE); test: Post-emerge test, crop safety; conditions: phytotoxicity rating 0-100 (0 no damage, 100 complete death), 14 days after application
Procedure, shortened: as §2

[12] = tested on: johnsongrass (Sorghum halepense, SORHA); test: Post-emerge test, greenhouse herbicide activity screening; conditions: phytotoxicity rating 0-100 (0 no damage, 100 complete death), 14 days after application
Procedure, shortened: (§3)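 Rating: 0–100 visual injury, 14 DAA. Application: acetone, 187 l/ha, 15–1000 g ai/ha, flat-fan track sprayer with nozzle 40–45 cm above soil or canopy. Post-emerge runs used 0.25% v/v surfactant on 2–3 leaf plants.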

[13] = tested on: common ragweed (Ambrosia artemisizfolia L., AMBEL); test: as above; conditions: phytotoxicity rating 0-100 (0 no damage, 100 complete death), 14 days after application
Procedure, shortened: as §3

[14] = tested on: ivyleaf morningglory (Ipomoea hederacea, IPOHE); test: as above; conditions: phytotoxicity rating 0-100 (0 no damage, 100 complete death), 14 days after application
Procedure, shortened: as §3

[15] = tested on: velvetleaf (Abutilon theophrasti, ABUTH); test: as above; conditions: phytotoxicity rating 0-100 (0 no damage, 100 complete death), 14 days after application
Procedure, shortened: as §3

[16] = tested on: sicklepod (Cassia obtusifolia, CASOB); test: as above; conditions: phytotoxicity rating 0-100 (0 no damage, 100 complete death), 14 days after application
Procedure, shortened: as §3

[17] = tested on: lambsquarters (Chenopodium album, CHEAL); test: as above; conditions: phytotoxicity rating 0-100 (0 no damage, 100 complete death), 14 days after application
Procedure, shortened: as §3

[18] = tested on: barnyardgrass (Echinochloa crus-galli, ECHCG); test: as above; conditions: phytotoxicity rating 0-100 (0 no damage, 100 complete death), 14 days after application
Procedure, shortened: as §3

[19] = tested on: redroot pigweed (Amaranthus retroflexus, AMARE); test: as above; conditions: phytotoxicity rating 0-100 (0 no damage, 100 complete death), 14 days after application
Procedure, shortened: as §3

[20] = tested on: large crabgrass (Digitaria sanguinalis, DIGSA); test: as above; conditions: phytotoxicity rating 0-100 (0 no damage, 100 complete death), 14 days after application
Procedure, shortened: as §3

[21] = tested on: green foxtail (Setaria viridis, SETVI); test: as above; conditions: phytotoxicity rating 0-100 (0 no damage, 100 complete death), 14 days after application
Procedure, shortened: as §3

[22] = tested on: field corn (Zea mays L., var. Dekalb 535, CORN); test: Pre-emerge test, crop safety; conditions: pre-emerge, rated 14 days after application, 0 = no damage, 100 = complete death
Procedure, shortened: as §1

[23] = tested on: upland rice (Oryza sp., var. Tebonnet, RICE); test: Pre-emerge test, crop safety; conditions: pre-emerge, rated 14 days after application, 0 = no damage, 100 = complete death
Procedure, shortened: as §1

**Q.** What does the source list for `COc1c(Cl)cc(F)c(-n2c(=O)cc(C(F)(F)F)n(C)c2=O)c1N=CN(C)C` [Compound 1-31, 3-[4-chloro-2-(dimethylaminomethynyl)imino-6-fluoro-3-methoxyphenyl]-1-methyl-6-trifluoromethyl-2,4(1H, 3H)-pyrimidinedione]?
**A.** Pre-emerge Herbicidal Activity AMARE (phytotoxicity rating, scale 0-100) ([1]; 63 g ai/ha): 80; Pre-emerge Herbicidal Activity AMARE (phytotoxicity rating, scale 0-100) ([1]; 250 g ai/ha): 100; Pre-emerge Herbicidal Activity SORHA (phytotoxicity rating, scale 0-100) ([2]; 63 g ai/ha): 0; Pre-emerge Herbicidal Activity SORHA (phytotoxicity rating, scale 0-100) ([2]; 250 g ai/ha): 90; Pre-emerge Herbicidal Activity IPOHE (phytotoxicity rating, scale 0-100) ([3]; 63 g ai/ha): 0; Pre-emerge Herbicidal Activity IPOHE (phytotoxicity rating, scale 0-100) ([3]; 250 g ai/ha): 80; Pre-emerge Herbicidal Activity ABUTH (phytotoxicity rating, scale 0-100) ([4]; 63 g ai/ha): 100; Pre-emerge Herbicidal Activity ABUTH (phytotoxicity rating, scale 0-100) ([4]; 250 g ai/ha): 100; Pre-emerge Herbicidal Activity CASOB (phytotoxicity rating, scale 0-100) ([5]; 63 g ai/ha): 70; Pre-emerge Herbicidal Activity CASOB (phytotoxicity rating, scale 0-100) ([5]; 250 g ai/ha): 95; Pre-emerge Herbicidal Activity CHEAL (phytotoxicity rating, scale 0-100) ([6]; 63 g ai/ha): 95; Pre-emerge Herbicidal Activity CHEAL (phytotoxicity rating, scale 0-100) ([6]; 250 g ai/ha): 100; Pre-emerge Herbicidal Activity ECHCG (phytotoxicity rating, scale 0-100) ([7]; 63 g ai/ha): 0; Pre-emerge Herbicidal Activity ECHCG (phytotoxicity rating, scale 0-100) ([7]; 250 g ai/ha): 40; Pre-emerge Herbicidal Activity DIGSA (phytotoxicity rating, scale 0-100) ([8]; 63 g ai/ha): 0; Pre-emerge Herbicidal Activity DIGSA (phytotoxicity rating, scale 0-100) ([8]; 250 g ai/ha): 90; Pre-emerge Herbicidal Activity SETVI (phytotoxicity rating, scale 0-100) ([9]; 63 g ai/ha): 50; Pre-emerge Herbicidal Activity SETVI (phytotoxicity rating, scale 0-100) ([9]; 250 g ai/ha): 100; Post-emerge Herbicidal Activity CORN (crop damage) ([10]; 63 g ai/ha): 0; Post-emerge Herbicidal Activity CORN (crop damage) ([10]; 250 g ai/ha): 0; Post-emerge Herbicidal Activity RICE (crop damage) ([11]; 63 g ai/ha): 0; Post-emerge Herbicidal Activity RICE (crop damage) ([11]; 250 g ai/ha): 10; Post-emerge Herbicidal Activity SORHA ([12]; 63 g ai/ha): 0; Post-emerge Herbicidal Activity SORHA ([12]; 250 g ai/ha): 0; Post-emerge Herbicidal Activity AMBEL ([13]; 63 g ai/ha): 0; Post-emerge Herbicidal Activity AMBEL ([13]; 250 g ai/ha): 0; Post-emerge Herbicidal Activity IPOHE ([14]; 63 g ai/ha): 10; Post-emerge Herbicidal Activity IPOHE ([14]; 250 g ai/ha): 50; Post-emerge Herbicidal Activity ABUTH ([15]; 63 g ai/ha): 20; Post-emerge Herbicidal Activity ABUTH ([15]; 250 g ai/ha): 50; Post-emerge Herbicidal Activity CASOB ([16]; 63 g ai/ha): 0; Post-emerge Herbicidal Activity CASOB ([16]; 250 g ai/ha): 0; Post-emerge Herbicidal Activity CHEAL ([17]; 63 g ai/ha): 0; Post-emerge Herbicidal Activity CHEAL ([17]; 250 g ai/ha): 40; Post-emerge Herbicidal Activity ECHCG ([18]; 63 g ai/ha): 0; Post-emerge Herbicidal Activity ECHCG ([18]; 250 g ai/ha): 0; Post-emerge Herbicidal Activity AMARE ([19]; 63 g ai/ha): 10; Post-emerge Herbicidal Activity AMARE ([19]; 250 g ai/ha): 30; Post-emerge Herbicidal Activity DIGSA ([20]; 63 g ai/ha): 0; Post-emerge Herbicidal Activity DIGSA ([20]; 250 g ai/ha): 0; Post-emerge Herbicidal Activity SETVI ([21]; 63 g ai/ha): 0; Post-emerge Herbicidal Activity SETVI ([21]; 250 g ai/ha): 0; Pre-emerge crop damage CORN (phytotoxicity rating, scale 0-100) ([22]; 63 g ai/ha): 0; Pre-emerge crop damage CORN (phytotoxicity rating, scale 0-100) ([22]; 250 g ai/ha): 50; Pre-emerge crop damage RICE (phytotoxicity rating, scale 0-100) ([23]; 63 g ai/ha): 0; Pre-emerge crop damage RICE (phytotoxicity rating, scale 0-100) ([23]; 250 g ai/ha): 10
